Data as given in patent publication US20250320215A1, “SALTS OF N-[4-(4-[[2-(DIMETHYLAMINO)ETHYL]AMINO]-3-METHYL-1H-PYRAZOLO[3,4-D]PYRIMIDIN-6-YL)-2-FLUOROPHENYL]-2,5-DIFLUOROBENZENESULFONAMIDE AND CRYSTALLINE FORMS THEREOF” (THRYV THERAPEUTICS INC, priority 2022, published 2025).

Test: Thermal treatment (heat-cool cycle by DSC, XRPD of resulting solids)
Format: physicochemical
Conditions: Heated to 130° C. at 10° C./min, and cooled to 25° C. at 5° C./min
Method: Compound 3, Form E was treated with heat-cool cycle by DSC. The resulted solids were characterized by XRPD. Compound 3, Form E, was converted to Compound 3, Form D after desolvation.
Compound 4 Form B was treated with heat-cool cycle by DSC. The resulted solids were checked by XRPD. […] The water was excluded at elevated temperature, then entered in the crystal lattice again at room temperature.
Compound 4 Form C and trace Form B was treated with heat-cool cycle by DSC. The resulted solids were checked by XRPD. The sample was converted to low crystalline (LC) Form B after heating to 175° C.
Compound 4 Form D was treated with heat-cool cycle by DSC. The resulted solids were checked by XRPD. The sample kept unchanged after heating to 140° C., but was converted to a new low crystalline form after heating to 210° C. which was assigned to Form F.

Cc1n[nH]c2nc(-c3ccc(NS(=O)(=O)c4cc(F)ccc4F)c(F)c3)nc(NCCN(C)C)c12 [Compound 4 Form B]
XRPD Resulting Form: Form B
